In PMC10870720, “Lignin bioconversion based on genome mining for ligninolytic genes in Erwinia billingiae QL-Z3” (Biotechnology for Biofuels and Bioproducts, 2024):

System: ELAC_205
Details: laccase; sodium acetate buffer; optimum pH 1.0, 50 °C (kinetic assay conditions not stated separately)

SMILES: CCn1c(=NN=c2sc3cc(S(=O)(=O)O)ccc3n2CC)sc2cc(S(=O)(=O)O)ccc21 [ABTS, 2, 2’-azino-bis (3-ethylbenzothiazoline-6-sulfonic acid)]
- Km: 360 ± 70 µM
